Bridges are numbered along the chain shown (N, C = ends). Where no end group is shown, it is not given here. [ ]: non-standard residue; d: D form. The star is where a group is joined. Biotin = O=C1N[C@H]2[C@H](CS[C@H]2CCCCC(=O)*)N1; S5 = C=CCCC[C@](C)(N)C(=O)O; Nle = CCCC[C@H](N)C(=O)O
Experiments:
[1] = tested on: actin; test: Labeling of actin in live zebrafish, confocal microscopy; type: in vivo; settings: 10 μM, room temperature, 2 hours, then 50 μM chloroquine for 30 minutes; skin; FIG. 9
Protocol: In a further application, a lead TAMRA-labeled stapled actin-binding peptide was incubated with live zebrafish (10 μM, room temperature, 2 hours), followed by treatment with 50 μM chloroquine for 30 minutes to achieve complete endosomal release and was immediately imaged by confocal microscopy (FIG. 9).

[2] = tested on: actin filaments; test: Labeling of actin filaments in fixed C2C12 cells, confocal microscopy; type: cell-based, mouse
Protocol: Stapled peptide (g) was also used to detect actin filaments in fixed C2C12 cells. Cells were seeded in 96 well plates at a density of 10,000 cells/well in DMEM media and incubated overnight at 37° C. The cells were fixed using 4% paraformaldehyde in PBS for 20 minutes and then permeabilized using 0.3% Triton-X100 in PBS for 10 minutes. This was followed by the addition of Hoechst DNA dye to the cells to stain nuclei, and FITC-phalloidin (Acti-stain™ 488 phalloidin, Cat. #PHDG1-A, Cytoskeleton, Inc.) to label F actin. After rinsing the cells with PBS, serial dilutions of each peptide were transferred to the cells, and the cells were incubated at 37° C. for 30 minutes. Confocal microscopy was then used to detect the cellular localization of the stapled peptide (g) fused to a fluorescent tag.

[3] = tested on: actin; test: Actin visualization in fixed murine tissues; type: cell-based, mouse; settings: fixed murine heart, lower extremity and tongue, FIG. 5
[4] = tested on: actin filaments; test: Labeling of actin filaments in live C2C12 cells, confocal microscopy; type: cell-based, mouse; settings: 10 μM, room temperature, 2 hours, then 50 μM chloroquine for 30 minutes
Protocol: To determine if stabilized peptides can be used to detect biomarkers in live cells, stapled peptide (g) (see FIG. 1, row (g)) was used to label actin filaments in mouse myoblast cells (C2C12 cell line, ATCC® CRL-1772™). Initially, cells were seeded at a density of 10,000 cells/well in 96 well plates in DMEM media and incubated overnight at 37° C. […] After washing the cells with phosphate-buffered saline (PBS), Hoechst DNA dye was then added to the cells, which were further incubated at room temperature for 30 minutes before being washed again to remove extra dye. Afterwards, confocal microscopy was used to determine the intracellular localization of the fluorescent-tagged stapled peptide.
This technology can be applied for, e.g., to FACS and other fluorescent high-throughput screening methods to for example detect overexpression of biomarkers in fixed and living cells.

[5] = tested on: actin; test: Visualization of actin in U2OS cells with TAMRA- and biotin-labeled stapled peptides; type: cell-based
[6] = tested on: actin filaments; test: Staple scan of TAMRA-tagged stapled Abp140 peptides: actin binding over time by fluorescence microscopy in C2C12 cells; type: cell-based; settings: C2C12 mouse myoblast cells, TAMRA-tagged peptides (b)-(g) compared
Description: As a proof of concept, hydrocarbon staples were introduced at different locations in a peptide with known binding attributes for a target protein in order to identify stapled peptides with enhanced stability, cell penetrance, and that retain or enhance target binding. As shown in FIG. 1 (row (a)), a peptide composed of 17 amino acids from the N-terminus of the S. cerevisiae Abp 140 protein that binds to actin filaments was chosen for modification. In the native protein, this peptide has an alpha-helical structure that is a recognition motif for actin. At least one all-hydrocarbon staple was introduced at various locations of the peptide to stabilize the alpha-helical recognition motif to produce stapled peptides markers for actin (see rows (b)-(g) in FIG. 1; the location of hydrocarbon staples in the peptide sequence is demarcated by an X, wherein X is(S)-2-(4′-pentenyl)alanine). […] After 3 hours of incubation, cells were washed with PBS to remove extra peptide reagent and fluorescence microscopy was then used to assess actin binding by the peptides, and to determine overall peptide stability. […] The stapled peptide that retained actin binding over the longest period of time, as determined by fluorescence in cells, was selected as having hydrocarbon staple(s) at the optimal sequence locations for improving peptide stability for biomarker detection.

peptide (g): peptide (f) with a serine to alanine substitution (S14A); Lysine(TAMRA)-tagged stapled actin-binding peptide ([Nle]GVADLIKKFE[S5]IAK[S5]EK(TAMRA); staple 12-16)
labeling of actin in live zebrafish [1]: can label actin in the skin of live zebrafish | labeling of actin filaments in fixed cells ([2]; C2C12 cells fixed with 4% paraformaldehyde, permeabilized with 0.3% Triton-X100, confocal microscopy): selectively bound to and labeled actin filaments | co-localization with the FITC-phalloidin-labeled actin filament network ([2]; fixed C2C12 cells): co-localized with the actin filament network | actin visualization in mouse tissues [3]: robust actin visualization in heart, lower extremity, and tongue specimens | cell entry and labeling of actin filaments in live cells [4]: entered live cells and selectively bound to and labeled actin filaments | actin detection in U2OS cells, direct fluorescence detection ([5]; TAMRA label, FIG. 4A): robust actin detection was observed

peptide (f): hydrocarbon-stapled Abp140 N-terminal 17-mer, TAMRA-tagged; selected as most stable stapled peptide marker for actin ([Nle]GVADLIKKFE[S5]ISK[S5]EK(TAMRA); staple 12-16)
period of time over which actin binding is retained, as determined by fluorescence in cells [6]: exhibited actin binding for the longest period of time

(h): stapled actin-binding peptide with alanine substitution and Lysine(Biotin) ([Nle]GVADLIKKFE[S5]IAK[S5]EK(Biotin); staple 12-16; not fully specified)
actin detection in U2OS cells, indirect detection with fluorescently-labeled streptavidin ([5]; biotin label, fixed cells, FIG. 4B): robust actin detection was observed

— patent US20250076288A1, “STABILIZED PEPTIDES FOR BIOMARKER DETECTION” (Dana-Farber Cancer Institute, Inc., priority 2018, published 2025)
